Measured values from PubChem BioAssay AID330 (DTP/NCI, 2004).
Inconclusive results and toxic doses are left out. How the source made its calls: active means survival T/C of 150% or more; inactive means T/C below 125% in these data.

Test system: P388 leukemia ip, CD2F1 mice, survival T/C
Experiment: NCI In Vivo Anticancer Drug Screen. Data for tumor model P388 Leukemia (intraperitoneal) in CD2F1 (CDF1) mice
Settings: endpoint: median survival time, schedule: Q01DX009 (ip), vehicle: saline with Tween-80, higher = longer survival
Method in brief: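 Mice carrying the transplanted tumor received test compound or vehicle. Survival was recorded in each group, and the value is the treated-group measurement divided by that of the vehicle-treated control group.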

Measured: T/C

COC1CCC(COS(=O)(=O)c2ccc(C)cc2)O1 (stereo not drawn)
inactive: dose: 50.0 mg/kg/injection 105 % of control | dose: 100.0 mg/kg/injection 100 % of control | dose: 200.0 mg/kg/injection 103 % of control
